Data taken from patent US20030228572A1, “Method of determining the efficacy of a compound in treating microbial infection” (priority 1998, published 2003).

How the values were obtained:
[1] = system: clinical S. aureus isolates, OSSA; assay: Oxacillin susceptibility test of clinical isolates by the impedance method; assay type: cell-based
Description: (§1) Susceptibility tests of the 235 clinical isolates of S. aureus were performed in a similar way to that used for the ATCC strains, except that only one concentration (2 μg/ml) of oxacillin in Mueller-Hinton agar was used. A negative control (Mueller-Hinton agar without oxacillin) was included for each strain tested. A strain was designated as OSSA if, in the presence of the antibiotic, there was no DT obtained within an incubation period of 24 h. A strain was designated as ORSA if, in the presence of the antibiotic, the DT was not affected or the delay in DT was less than 3 h as compared to the negative control. S. aureus ATCC 29213 (OSSA) and ATCC 33592 (ORSA) were run at the same time as controls. Strains showing discrepant results were reconfirmed by the oxacillin screen agar (Becton Dickinson Microbiology Systems, Cockysville, Md.).

[2] = system: clinical S. aureus isolates, ORSA; assay: as above; assay type: cell-based; settings: for DT in h on Mueller-Hinton agar With Oxacillin (2 μg/ml), mean ± standard deviation: without oxacillin 5.7 ± 0.6 h
Description: as §1

[3] = system: blood cultures containing ORSA; assay: Direct detection in blood cultures by the impedance method; assay type: cell-based, S. aureus; settings: oxacillin 2 μg/ml; 36 of 38 vials containing ORSA
Description: (§2) Blood specimens were collected at the National Cheng Kung University Hospital during a period in 1996. The BACTEC NR6A and NR7A vials (containing about 30 ml of liquid media; Becton Dickinson Microbiology Systems) were normally inoculated with 3 to 5 ml of blood from the patients, inserted into a BACTEC NR660 instrument (Becton Dickinson Microbiology Systems), and incubated at 37° C. A small aliquot (0.1 to 0.2 ml) of the culture broth was drawn from the vials showing growth of gram-positive cocci (as determined by Gram stain), heated in a boiling water bath for 15 min, and tested for thermonuclease activities on slides coated with toluidine blue-DNA agar (Bennett et al., Staphylococcus aureus, pp. 161-166, In: Bacteriological Analytical Manual, 7th ed. Association of Official Analytical Chemists International, Arlington, Va., 1992). A positive thermonuclease reaction was the development of a pink halo extending at least 1 mm from the periphery of the reaction well. […] The modules were incubated at 37° C. and DTs of the wells were automatically determined by the instrument or by manual inspection of the impedance curves. A vial was designated as ORSA or OSSA positive according to the same parameters set for pure stock cultures. […]

[4] = system: blood cultures containing OSSA; assay: as above; assay type: cell-based, S. aureus; settings: oxacillin 2 μg/ml; 57 of 58 blood cultures containing OSSA; within an incubation period of 24 h
Description: as §2

[5] = system: S. aureus ATCC 29213 (OSSA); assay: Impedance growth curves (detection time, DT) on Mueller-Hinton agar with oxacillin, BACTOMETER M-128; assay type: cell-based; settings: for DT (detection time): Mueller-Hinton agar
Description: (§3) Mueller-Hinton agar containing different concentrations of oxacillin (0 to 128 μg) was prepared by two-fold serial dilutions, and 0.6 ml of the medium was dispensed into the module wells of […]-128 (bioMerieux Vitek, Hazelwood, Mo.). The three ATCC S. aureus strains were used to observe the effect of oxacillin concentration on the impedance curves during bacterial growth. These strains were subcultured on TSA for 18 to 24 hours (“h”) at 37° C. One single colony on TSA was inoculated into 10 ml of TSB, incubated at 37° C. for several hours, and diluted with 0.1% peptone water to a turbidity of 0.5 McFarland. An aliquot (0.1 ml) of the bacterial suspensions was inoculated into the module well containing Mueller-Hinton agar supplemented with oxacillin. The inoculated modules (each module contains 16 wells) were inserted into the incubator of BACTOMETER set at 37° C. The impedance change in each well was continuously monitored and recorded by the instrument at 6-minute (“min”) intervals for 24 h, and results were obtained graphically as impedance growth curves. DT in hours for each well was automatically determined by the instrument software when three consecutive readings of impedance change exceeded the default value in the instrument, or was manually determined by locating the inflection point (where an accelerating change of impedance was evident) on the impedance curve.

[6] = system: S. aureus ATCC 33591 (ORSA); assay: as above; assay type: cell-based; settings: for DT (detection time): Mueller-Hinton agar, without oxacillin 5.3 h
Description: as §3

[7] = system: S. aureus ATCC 33592 (ORSA); assay: as above; assay type: cell-based; settings: for DT (detection time): Mueller-Hinton agar, without oxacillin 5.3 h
Description: as §3

[8] = oxacillin concentration as high as 128 μg/ml
[9] = oxacillin concentration as high as 64 yg/ml

## Cc1onc(-c2ccccc2)c1C(=O)N[C@@H]1C(=O)N2[C@@H]1SC(C)(C)[C@@H]2C(=O)O [oxacillin]
[1]; 84 correctly identified of 86 OSSA strains, 24 h incubation
  DT in h (range) on Mueller-Hinton agar With Oxacillin (2 μg/ml): —^c (—, DT was not found within an incubation period of 24 h.)
[1]; oxacillin 2 μg/ml, 84 of the 86 OSSA strains, within an incubation period of 24 h
  DT: no DT
[2]; 141 ORSA strains, range over strains
  DT in h (range) on Mueller-Hinton agar With Oxacillin (2 μg/ml): 4.7 to 9.1 h
[2]; 141 ORSA strains
  DT in h on Mueller-Hinton agar With Oxacillin (2 μg/ml), mean ± standard deviation: 6.0 ± 0.7 h
[2]; 141 ORSA strains, listed as Oxacillin
  DT in h on Mueller-Hinton agar With Oxacillin (2 μg/ml), mean ± standard deviation: 6.0 ± 0.7 h
[2]; oxacillin 2 μg/ml, 141 of 149 ORSA strains (DTs equal to controls or delayed)
  delay in DTs compared to negative controls: less than 3 h
[2]; oxacillin 2 μg/ml, false-negative strain no. 127
  DT behind the negative control: 17 h
[2]; oxacillin 2 μg/ml, false-negative strain no. 127, negative control DT=5.7 h
  DT: 22.7 h
[2]; oxacillin 2 μg/ml, seven of the eight false-negative strains, within an incubation period of 24 h
  DT: no DT
[3]
  average DT: 5.5 h
[4]
  DT: no DTs
[5]; oxacillin 0.063 μg per ml, without oxacillin 4.0 h
  DT (detection time): 4.1 h
[5]; oxacillin 0.063 μg/ml versus no oxacillin
  increase in DT: 0.1 h
[5]; oxacillin 0.125 μg per ml, without oxacillin 4.0 h
  DT (detection time): 4.1 h
[5]; oxacillin 0.125 μg/ml versus no oxacillin
  increase in DT: 0.1 h
[5]; oxacillin 0.25 μg per ml, within 16 hours
  DT (detection time): no DT
[5]; oxacillin 0.25 μg/ml
  growth: almost completely inhibited
[6]; oxacillin 32 μg per ml
  DT (detection time): 6.2 h
[6]; oxacillin 64 μg per ml
  DT (detection time): 6.8 h
[6]; oxacillin 128 μg per ml
  DT (detection time): 12.1 h
[6]; [8]
  growth: not inhibited to a large extent
[6]; [9]
  growth: only slightly inhibited
[7]; oxacillin 32 μg per ml
  DT (detection time): 6.3 h
[7]; oxacillin 64 μg per ml
  DT (detection time): 7.0 h
[7]; oxacillin 128 μg per ml
  DT (detection time): 9.3 h
[7]; [8]
  growth: not inhibited to a large extent
[7]; [9]
  growth: only slightly inhibited
